# Assay results as given in EP0084678B1, “New compound having analgesic, antiinflammatory and mucoregulating activities, process for its production and relative pharmaceutical compositions” (AUSONIA FARMACEUTICI S.r.l., priority 1982, dated 1983).
# Legend:
# male rabbit = test: Mucosecretolytic activity (technique of Giraldez et al.); type: in vivo; settings: 500 mg/kg/os
# Excerpt: The mucosecretolytic activity has been studied in the male rabbit according to the technique of Giraldez, Grass and Bruseghini (Abstr. Comp. Int. Pharm. N. 1086-Paris 1978), by administration by the oral route, comparing AFP-696 with carboxymethylcysteine and sobrerol at the dose hereinafter stated.
# male Wistar rats = test: Bronchosecretogogue activity (Mawatari technique); type: in vivo, rat; settings: 500 mg/kg/os, FlNa = Sodium fluoresceine
# Excerpt: The bronchosecretogogue activity has been determined in male Wistar rats by per os administration according to the method of Mawatari [Mawatari H., Kagoshima Daigaku Igaku-Zasshi, 27, 561 (1976)], comparing AFP-696 with carboxymethylcysteine and sobrerol at the doses hereinafter stated.
# [1] = system: cough induced by citric acid aerosol; test: Anti-cough activity, cough induced by citric acid aerosol; type: in vivo, rabbits; settings: cough strokes
# Method: The anti-cough activity of AFP-696 has been assessed after administration by endoperitoneal route (30% in tween) on rabbits of both sexes, weighing […], according to the method of the cough induced by citric acid aerosol administration, and evaluating the mean number of cough strokes in comparison with the same basal values (Boura and coil. - Prog. Brit. Pharmac. Soc. Apr. 1970). As reference standard a group of codeine treated animals at the dose of 12.5 mg/kg has been used.
# gastric mucose = test: Gastrolesive action; type: in vivo; settings: rats fasting since 18 hours, 5 hours 30 minutes after treatment
# Method: Rats fasting since 18 hours have been treated by oral route with AFP-696 and, for comparison, with acetylsalicylic acid, at the doses hereinafter stated. 5 Hours and 30 minutes after treatments, the animals have been sacrificed and the stomach has been withdrawn for gastric mucose examination.
# [2] = system: writhings by phenylquinone; test: Analgesic activity, writhings by phenylquinone; type: in vivo; settings: mouse; for % Inhibition in comparison with controls: writhings
# Method: The test of writhings by phenylquinone in the mouse has been used. AFP-696 has been administered by oral route at the dose of 500 mg/kg in comparison with acetylsalicylic acid at the dose of […].
# The two drugs have been administered per os 30 minutes after intraperitoneal injection of phenil- quinone.
# [3] = system: subplantar edema induced by carrageenin; test: Antiinflammatory activity, subplantar edema by carrageenin; type: in vivo; settings: rat; for MEAN LIMB VOLUME AT DIFFERENT HOURS AFTER TREATMENT 0: hour 0; for MEAN LIMB VOLUME AT DIFFERENT HOURS AFTER TREATMENT 1: hour 1; for MEAN LIMB VOLUME AT DIFFERENT HOURS AFTER TREATMENT 2: hour 2; for MEAN LIMB VOLUME AT DIFFERENT HOURS AFTER TREATMENT 3: hour 3; for MEAN LIMB VOLUME AT DIFFERENT HOURS AFTER TREATMENT 4: hour 4; for MEAN LIMB VOLUME AT DIFFERENT HOURS AFTER TREATMENT 5: hour 5; for AREA Absolute value: limb volume over 5 hours
# Method: Tests have been performed on the rat, employing the test of the subplantar edema induced by carrageenin. […] and, for comparison, ASA, have been administered by oral route 30 minutes before carrageenin, at the doses hereinafter stated. After edema induction, the animals of each group have been controlled, every 60 minutes for 5 consecutives hours, in order to point out the evolution of the inflammatory process.
# [4] = Acute toxicity (Litchfield and Wilcoxon method), rat; settings: Wistar, in vivo
# Excerpt: (§1) The acute toxicity has been determined in Swiss mouse and in Wistar rat for different administration routes, according to the method of Litchfield J.T. and Wilcoxon [J. Pharm. Exp. Therap. 96, 99―113, (1949)].
# (§2) The results obtained are reported in the following Table I; from the same it can be pointed out how AFP 696 is endowed with a very low acute toxicity.
# [5] = Solubility of the isolated product; type: physicochemical
# Method: To 90 g of ASA in 500 ml of benzene, 120 g of thionyl chloride are added. The mixture is refluxed for three hours. At the end, the benzene is evaporated under reduced pressure to dryness. The acetylsalicyclic acid chloride so obtained is dissolved in 500 ml of anhydrous tetrahydrofuran and added with 80 g of pyridine; to this solution 85 g of sobrerol (di-trans form) are added. The reaction is completed after two hours refluxing. At the end the solvent is evaporated under reduced pressure, the residue is washed with water and extracted with ethyl ether. […] Its structure is confirmed by analytical and spectroscopical data: • Elemental analysis: for C19H24O5 (M.W. = 332.39) • calcd. % C = 68.66; H = 7.28 • found % C = 68.79; H = 7.33. • I.R. Spectrum (liquid film; values of absorption bands are expressed in cm^-1): • stretch 0-H 3550-3400 broad bands • stretch C-H aromatics alifatics 3080-2910 • stretch C = O alifat. ester 1780 • stretch C = O aromat. ester 1730 • stretch C = C 1615 • stretch C(= 0)-O acetate 1145 • stretch C(= 0)-0 arilyc 1255 • H' NMR Spectrum (recorded in CDCI3, internal references TMS; values of chemical shifts are expressed in 6): • 1.2 (d, 6H, 2(CH3)); • 1.8 (s, 3H, =C-CH3); • 1.4-2.2 (m, 6H, CH2-CH-CH2, OH mobile); • 2.3 (s, 3H, CO-CH3); • 5.3 (m, 1H, CH―O―CO); • 5.8 (m, 1H, CH=C-CH3); • 7-7.7 (m, 3H aromatics); • 8 (double d, 1H aromatic). […]
# [6] = Acute toxicity (Litchfield and Wilcoxon method), mouse; settings: Swiss, in vivo
# Excerpt: as §1, §2
# [7] = Pharmacokinetics, plasma and lung levels by gas chromatography; type: in vivo; settings: rats
# Method: Two groups of rats have been treated per os, by gastric tube, with AFP-696 at the dose of 100 mg/kg and acetylsalicylic acid at the dose of 54 mg/kg. At the moment of treatment rats were fasting since 18 hours. Rats have been then sacrificed in groups of 4 at different times: 30 min., 1 h, 2 h, 4 h, 6 h.
# The concentration both of unchanged products and of their metabolites have been measured by gaschromatography in plasma and in the lung.
structure (smiles),measurement,setting,value
"CC1=CCC(C(C)(C)O)CC1O (stereo not drawn) [Sobrerol, 2-methyl-5-(1-hydroxy-1-methyl-ethyl)-2-cyclohexen-1-ol, reference compound]",% Increase of secretion in comparison with controls,male rabbit,36.8%
same,% Increase of FlNa (*) in comparison with controls,male Wistar rats,33.4%
"COc1ccc2c3c1O[C@H]1[C@@H](O)C=C[C@H]4[C@@H](C2)N(C)CC[C@@]341 [Codeine, codeine, reference compound]",% Inhibition in comparison with controls,[1]; 12.5 mg/kg,76.7%
"CC(=O)Oc1ccccc1C(=O)O [Acetylsalicylic acid, acetylsalicylic acid, reference compound]",Mean ulcers' size,gastric mucose; 100 mg/kg/os,3.9 ± 1.2 mm
same,Mean No of writhings,[2]; 250 mg/kg os,0.6 ± 0.5
same,No animals with writhings,[2]; 250 mg/kg os,1/10
same,% Inhibition in comparison with controls,[2]; 250 mg/kg os,95.3%
same,AREA % Inhibition in comparison with controls,[3]; 250 mg/kg os,33.6%
same,MEAN LIMB VOLUME AT DIFFERENT HOURS AFTER TREATMENT 0,[3]; 250 mg/kg os,24.3
same,MEAN LIMB VOLUME AT DIFFERENT HOURS AFTER TREATMENT 1,[3]; 250 mg/kg os,27.4
same,MEAN LIMB VOLUME AT DIFFERENT HOURS AFTER TREATMENT 2,[3]; 250 mg/kg os,32.2
same,MEAN LIMB VOLUME AT DIFFERENT HOURS AFTER TREATMENT 3,[3]; 250 mg/kg os,37.8
same,MEAN LIMB VOLUME AT DIFFERENT HOURS AFTER TREATMENT 4,[3]; 250 mg/kg os,38.6
same,MEAN LIMB VOLUME AT DIFFERENT HOURS AFTER TREATMENT 5,[3]; 250 mg/kg os,38.6
same,AREA Absolute value,[3]; 250 mg/kg os,181.28
"CC(=O)Oc1ccccc1C(=O)OC1CC(C(C)(C)O)CC=C1C (stereo not drawn) [AFP-696, 2-acetoxybenzoate of 2-methyl-5-(1-hydroxy-1-methylethyl)-cyclohexen-2-yl]",% Increase of secretion in comparison with controls,male rabbit,39.5%
same,LD50,[4]; ip,1950 mg/kg
same,LD50,"[4]; oral, os",> 4000 mg/kg
same,solubility in organic solvents,[5]; organic solvents,easily soluble
same,solubility in water,[5]; water,slightly soluble
same,% Inhibition in comparison with controls,"[1]; 150 mg/kg, endoperitoneal route (30% in tween)",82.4%
same,LD50,[6]; ip,1600 mg/kg
same,LD50,"[6]; oral, os",3500 mg/kg
same,pulmonary levels of salicylic acid,"[7]; 100 mg/kg per os vs acetylsalicylic acid 54 mg/kg, lung",higher
same,plasma levels of acetylsalicylic acid in comparison with the administration of acetylsalicylic acid at equimolar doses,"[7]; 100 mg/kg per os vs acetylsalicylic acid 54 mg/kg, more marked in the first two hours",higher
same,unchanged AFP-696 in plasma,"[7]; 100 mg/kg per os, at 30 minutes and in some instance also at 1 hour",found in plasma
same,Mean ulcers' size,gastric mucose; 150 mg/kg/os,0.7 ± 0.4 mm
same,Mean No of writhings,[2]; 500 mg/kg os,1.3 ± 0.9
same,No animals with writhings,[2]; 500 mg/kg os,3/10
same,% Inhibition in comparison with controls,[2]; 500 mg/kg os,89.8%
same,% Increase of FlNa (*) in comparison with controls,male Wistar rats,63.6%
same,AREA % Inhibition in comparison with controls,[3]; 500 mg/kg os,33.0%
same,MEAN LIMB VOLUME AT DIFFERENT HOURS AFTER TREATMENT 0,[3]; 500 mg/kg os,24.1
same,MEAN LIMB VOLUME AT DIFFERENT HOURS AFTER TREATMENT 1,[3]; 500 mg/kg os,28.1
same,MEAN LIMB VOLUME AT DIFFERENT HOURS AFTER TREATMENT 2,[3]; 500 mg/kg os,31.4
same,MEAN LIMB VOLUME AT DIFFERENT HOURS AFTER TREATMENT 3,[3]; 500 mg/kg os,37.4
same,MEAN LIMB VOLUME AT DIFFERENT HOURS AFTER TREATMENT 4,[3]; 500 mg/kg os,38.1
same,MEAN LIMB VOLUME AT DIFFERENT HOURS AFTER TREATMENT 5,[3]; 500 mg/kg os,38.1
same,AREA Absolute value,[3]; 500 mg/kg os,183.0
